Like-named read-outs stand apart in the source and are kept apart here.
Assays:
[1] = target: His6-ERα298-554 WT (ERα ligand-binding domain) (Homo sapiens (Human), UniProt P03372); assay: Test A: biochemical antagonist activity, LanthaScreen TR-FRET ERα coactivator assay, WT; conditions: read-out: Antagonism WT IC50
Outline: (§1)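 Compounds were added to receptor LBD (0.5 nM), terbium-labelled His6 antibody (0.5 nM), PGC1a coactivator peptide (250 nM) and estradiol at 3 nM or 10 nM. After incubating overnight at room temperature, the 520:495 nm ratio gave IC50 values by four-parameter logistic regression.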

[2] = target: His6-ERα298-554 D538G mutant (ERα ligand-binding domain) (Homo sapiens (Human), UniProt P03372, D538G); assay: Test A: biochemical antagonist activity, LanthaScreen TR-FRET ERα coactivator assay, D538G mutant; conditions: read-out: Antagonism D538G IC50
Outline: as §1

[3] = target: His6-ERα298-554 Y537S mutant (ERα ligand-binding domain) (Homo sapiens (Human), UniProt P03372, Y537S); assay: Test A: biochemical antagonist activity, LanthaScreen TR-FRET ERα coactivator assay, Y537S mutant; conditions: read-out: Antagonism Y537S IC50
Outline: as §1

[4] = test system: MCF7 cells (breast tumor cells) WT; assay: Test B: cell proliferation/viability assay (CellTiter-Glo) on MCF7 WT; format: cell-based; conditions: Homo sapiens, MCF7, 168 h, 7 days of compound exposure
Outline: (§2)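 Mutant lines are MCF7 transfected with ER mutants and selected for estradiol-independent growth. Cells in phenol red-free MEM with 5% charcoal-stripped FBS received 9-point 1:5 dilutions (3-0.000001 μM) for 7 days; CellTiter-Glo luminescence, % viability relative to untreated after background subtraction.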

[5] = test system: MCF7 cells expressing mutant estrogen receptor Tyr 537 Ser; assay: Test B: cell proliferation/viability assay (CellTiter-Glo) on MCF7 Tyr 537 Ser mutant; format: cell-based; conditions: Homo sapiens, MCF7, 168 h, MCF7 cells expressing ER Tyr 537 Ser mutant, 7 days of compound exposure, read-out: proliferation MCF7 Y537S IC50
Outline: as §2

[6] = test system: MCF7 cells expressing mutant estrogen receptor Asp 538 Gly; assay: Test B: cell proliferation/viability assay (CellTiter-Glo) on MCF7 Asp 538 Gly mutant; format: cell-based; conditions: Homo sapiens, MCF7, 168 h, MCF7 cells expressing ER Asp 538 Gly mutant, 7 days of compound exposure, read-out: proliferation MCF7 D538G IC50
Outline: as §2

ERα in MCF7 cells = ERα in MCF7 cells (Homo sapiens (Human), UniProt P03372); assay: Test C: estrogen receptor degradation activity, ERα in cell western assay in MCF7 cells; format: cell-based; conditions: for DC50: 4 hours post compound addition, ERα in cell western, read-out: Degradation IC50; for % Degradation at 3 μM: 4 hours, relative to fulvestrant
Outline: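 MCF7 cells in phenol-red-free medium with 5% charcoal-stripped FBS received compound (9-point 1:5, 3-0.000018 μM) for 4 h, then were fixed. ERα immunostained (Alexa 488) and normalised to DNA (Syto-64), read as integrated fluorescence on an Acumen scanner.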

[7] = asterisk (*): protocol using 10 nM estradiol

Sequence of His6-ERα298-554 WT (ERα ligand-binding domain) (P03372 298-554): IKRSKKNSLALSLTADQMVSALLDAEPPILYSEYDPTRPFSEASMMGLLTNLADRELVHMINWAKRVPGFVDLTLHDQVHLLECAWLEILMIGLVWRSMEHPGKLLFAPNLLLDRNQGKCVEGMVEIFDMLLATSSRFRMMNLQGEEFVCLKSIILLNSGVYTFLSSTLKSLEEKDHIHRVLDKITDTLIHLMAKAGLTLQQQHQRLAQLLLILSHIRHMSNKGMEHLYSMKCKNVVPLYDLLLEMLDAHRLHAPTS
Sequence of His6-ERα298-554 Y537S mutant (ERα ligand-binding domain) (P03372 298-554 Y537S): as the sequence (P03372 298-554) above, with Y240S counted along it
Sequence of His6-ERα298-554 D538G mutant (ERα ligand-binding domain) (P03372 298-554 D538G): as the sequence (P03372 298-554) above, with D241G counted along it
Sequence of ERα in MCF7 cells (P03372 whole entry): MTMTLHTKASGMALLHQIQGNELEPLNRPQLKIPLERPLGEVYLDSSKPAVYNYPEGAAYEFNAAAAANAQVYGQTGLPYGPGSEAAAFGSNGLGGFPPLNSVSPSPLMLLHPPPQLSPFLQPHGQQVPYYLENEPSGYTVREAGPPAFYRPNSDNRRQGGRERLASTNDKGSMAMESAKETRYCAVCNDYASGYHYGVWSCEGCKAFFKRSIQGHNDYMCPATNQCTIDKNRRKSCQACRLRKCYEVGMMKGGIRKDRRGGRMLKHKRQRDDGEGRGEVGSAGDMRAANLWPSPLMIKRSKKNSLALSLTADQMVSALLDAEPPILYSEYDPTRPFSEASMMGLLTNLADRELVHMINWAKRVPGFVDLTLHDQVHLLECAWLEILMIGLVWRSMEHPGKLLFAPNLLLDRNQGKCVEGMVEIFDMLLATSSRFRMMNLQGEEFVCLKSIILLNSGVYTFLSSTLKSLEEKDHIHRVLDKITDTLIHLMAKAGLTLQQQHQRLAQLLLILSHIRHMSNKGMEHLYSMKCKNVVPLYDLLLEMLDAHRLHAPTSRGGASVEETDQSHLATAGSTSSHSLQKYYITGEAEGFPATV

SMILES	IC50 [1, 7] [nM]	IC50 [2, 7] [nM]	IC50 [3, 7] [nM]	IC50 [4] [nM]	IC50 [5] [nM]	IC50 [6] [nM]	DC50 (ERα in MCF7 cells) [nM]	% Degradation at 3 μM (ERα in MCF7 cells) [%]	IC50 ([1]; protocol with 3 nM estradiol) [nM]	IC50 ([2]; protocol with 3 nM estradiol) [nM]	IC50 ([3]; protocol with 3 nM estradiol) [nM]
Oc1ccc2c(c1)SCCC(c1ccc(OC(F)(F)F)cc1)=C2c1ccc(O[C@H]2CCN(CCCF)C2)cc1 [Example 214, 5-[4-[(3S)-1-(3-fluoropropyl)pyrrolidin-3-yl]oxyphenyl]-4-[4-(trifluoromethoxy)phenyl]-2,3-dihydro-1-benzothiepin-8-ol]	38	539	457	0.4	6	0.7	1	82			
Oc1ccc2c(c1)SCCC(c1ccc3c(c1)CCN3)=C2c1ccc(O[C@H]2CCN(CCCF)C2)cc1 [Example 176, 5-[4-[(3S)-1-(3-fluoropropyl)pyrrolidin-3-yl]oxyphenyl]-4-indolin-5-yl-2,3-dihydro-1-benzothiepin-8-ol]				3	48	9	0.2	85	6	28	20
NS(=O)(=O)c1ccc(C2=C(c3ccc(O[C@H]4CCN(CCCF)C4)cc3)c3ccc(O)cc3SC2)cc1 [Example 42, 4-[4-[4-[(3S)-1-(3-fluoropropyl)pyrrolidin-3-yl]oxyphenyl]-7-hydroxy-2H-thiochromen-3-yl]benzenesulfonamide]	674	> 4000	> 4000	46	809	31	11	89			
CCOc1ccc(C2=C(c3ccc(O[C@H]4CCN(CCCF)C4)nc3)c3ccc(O)cc3SCC2)c(F)n1 [Example 208, 4-(6-ethoxy-2-fluoro-3-pyridyl)-5-[6-[(3S)-1-(3-fluoropropyl)pyrrolidin-3-yl]oxy-3-pyridyl]-2,3-dihydro-1-benzothiepin-8-ol]	0.6	7	5	0.2	4	0.7	0.4	86			
Oc1ccc2c(c1)C(c1ccc(O[C@H]3CCN(CCCF)C3)cc1)=C(c1ccc(SC(F)(F)F)cc1)CC2 [Example 9, 8-[4-[(3S)-1-(3-fluoropropyl)pyrrolidin-3-yl]oxyphenyl]-7-[4-(trifluoromethylsulfanyl)phenyl]-5,6-dihydronaphthalen-2-ol]	2290	> 4000	> 4000	44	> 999	47	28	79			
CCOc1ccc(C2=C(c3cnc(O[C@H]4CCN(CCCF)C4)nc3)c3ccc(O)cc3SC2)c(F)n1 [Example 76, 3-(6-ethoxy-2-fluoro-3-pyridyl)-4-[2-[(3S)-1-(3-fluoropropyl)pyrrolidin-3-yl]oxypyrimidin-5-yl]-2H-thiochromen-7-ol]	4	100	61	0.6	6	1	0.6	88			
Cc1ccc(C2=C(c3ccc(O[C@H]4CCN(CCCF)C4)cc3)c3ccc(O)cc3SC2)c(F)c1 [Example 16, 3-(2-fluoro-4-methyl-phenyl)-4-[4-[(3S)-1-(3-fluoropropyl)pyrrolidin-3-yl]oxyphenyl]-2H-thiochromen-7-ol]				0.9	10	2	1	90	4	16	6
CCN(CC)c1ccc(C2=C(c3ccc(O[C@H]4CCN(CCCF)C4)cc3)c3ccc(O)cc3SCC2)c(F)c1 [Example 224, 4-[4-(diethylamino)-2-fluoro-phenyl]-5-[4-[(3S)-1-(3-fluoropropyl)pyrrolidin-3-yl]oxyphenyl]-2,3-dihydro-1-benzothiepin-8-ol]	71	1480	1030	3	83	8	3	85			
Oc1cc2c(cc1Cl)C(c1ccc(O[C@H]3CCN(CCCF)C3)cc1)=C(c1ccc3c(c1)CCN3)CCO2 [Example 143, 7-chloro-5-[4-[(3S)-1-(3-fluoropropyl)pyrrolidin-3-yl]oxyphenyl]-4-indolin-5-yl-2,3-dihydro-1-benzoxepin-8-ol]				24	357	63	14	74	464	4000	4000
Oc1ccc2c(c1)SCC(c1ccc(CF)cc1)=C2c1ccc(O[C@H]2CCN(CCCF)C2)cc1 [Example 61, 3-[4-(fluoromethyl)phenyl]-4-[4-[(3S)-1-(3-fluoropropyl)pyrrolidin-3-yl]oxyphenyl]-2H-thiochromen-7-ol]	37	686	437	2	17	0.6	0.2	82			
Cc1cc(C2=C(c3ccc(O[C@H]4CCN(CCCF)C4)cc3)c3ccc(C(=O)O)cc3SCC2)ccc1Cl [Example 211, 4-(4-chloro-3-methyl-phenyl)-5-[4-[(3S)-1-(3-fluoropropyl)pyrrolidin-3-yl]oxyphenyl]-2,3-dihydro-1-benzothiepine-8-carboxylic acid]	39	964	475	0.4	10	0.6	0.3	93			
CCOc1ccc(C2=C(c3ccc(O[C@H]4CCN(CCCF)C4)cc3)c3cc(F)c(O)cc3OCC2)c(C)c1 [Example 155, 4-(4-ethoxy-2-methyl-phenyl)-7-fluoro-5-[4-[(3S)-1-(3-fluoropropyl)pyrrolidin-3-yl]oxyphenyl]-2,3-dihydro-1-benzoxepin-8-ol]	21	365	228	0.4	6	1	0.2	81			
Cc1noc(C)c1C1=C(c2ccc(O[C@H]3CCN(CCCF)C3)cc2)c2ccc(O)cc2SCC1 [Example 219, 4-(3,5-dimethylisoxazol-4-yl)-5-[4-[(3S)-1-(3-fluoropropyl)pyrrolidin-3-yl]oxyphenyl]-2,3-dihydro-1-benzothiepin-8-ol]	12	233	149	0.1	2	0.4	0.2	90			
Oc1ccc2c(c1)OCCC(c1ccc(Cl)cc1F)=C2c1ccc(O[C@H]2CCN(CCCF)C2)cc1 [Example 98, 4-(4-chloro-2-fluoro-phenyl)-5-[4-[(3S)-1-(3-fluoropropyl)pyrrolidin-3-yl]oxyphenyl]-2,3-dihydro-1-benzoxepin-8-ol]				0.5	5	2	0.5	93	14	106	40
CCOc1ccc(C2=C(c3ccc(O[C@H]4CCN(CCCF)C4)cc3)c3ccc(O)cc3OCC2)c(F)c1 [Example 152, 4-(4-ethoxy-2-fluoro-phenyl)-5-[4-[(3S)-1-(3-fluoropropyl)pyrrolidin-3-yl]oxyphenyl]-2,3-dihydro-1-benzoxepin-8-ol]	9	154	107	0.5	4	3	0.2	92			
COc1c(C(=O)O)cccc1C1=C(c2ccc(O[C@H]3CCN(CCCF)C3)cc2)c2ccc(O)cc2OCC1 [Example 148, 3-[5-[4-[(3S)-1-(3-fluoropropyl)pyrrolidin-3-yl]oxyphenyl]-8-hydroxy-2,3-dihydro-1-benzoxepin-4-yl]-2-methoxy-benzoic acid]	> 4000	> 4000	> 4000	222	> 999	314	448	77			

From patent publication US11149031B2, “Substituted N-(3-fluoropropyl)-pyrrolidine compounds, processes for their preparation and therapeutic uses thereof” (SANOFI, priority 2016, dated 2021)
